Assay type in all cases: cell-based, human
One experiment deals with CD40. Kind of experiment: FACS analysis of CD40 expression on B cells. As for the experimental part: Human buffy coat (50 ml) was diluted with 50 ml sterile PBS (Ca^++, Mg^++ free), and mixed gently. A 25 ml aliquot of diluted buffy coat was transferred to each 50 ml centrifuge tube, and Histopaque-1077 (14 ml, #1077-1, Sigma) was gently layered into the bottom of the tube. The sample was centrifuged at 2,000 rpm for 30 min at room temperature. The interface containing mononuclear cells was transferred into 50 ml centrifuge tube, and washed once with PBS (1200 rpm, 5 min). The supernatant was discarded. Cell pellet was resuspended in Miltenyi buffer. Anti-CD19^+ microbeads were added to the suspension (10^7 cells in 80 μl of buffer, 20 μl antibody beads for 10^7 cells) and incubated for 15 min at 4° C. Cell pellet was washed once and resuspended in 1 ml Miltenyi buffer. The cell suspension was added to the magnetic column, washed with 10 ml Miltenyi buffer in the column. CD19^+ cells are released by 1 ml Miltenyi Buffer without magnetic field. CD19^+ cells were washed twice with RPMI complete medium. B cells (2×10^5) were plated in 96 well plate. […]
In addition to the suppression of IL-4 induced proliferation, CD40+IL-4 induced HLA-DR expression was also examined. B cells were treated by 1,3-dioxo-(2,6-dioxopiperidin-3-yl)-4-aminoisoindoline with CD40L+IL-4 for 72 hours, and the cell surface expression markers CD40 and HLA-DR were measured by FACS. […]

In another experiment the test system is B cells. In words: B cell proliferation by BrdU ELISA. Particulars: 3 days (FIG. 7A). The protocol:
(§1) Human buffy coat (50 ml) was diluted with 50 ml sterile PBS (Ca^++, Mg^++ free), and mixed gently. A 25 ml aliquot of diluted buffy coat was transferred to each 50 ml centrifuge tube, and Histopaque-1077 (14 ml, #1077-1, Sigma) was gently layered into the bottom of the tube. The sample was centrifuged at 2,000 rpm for 30 min at room temperature. The interface containing mononuclear cells was transferred into 50 ml centrifuge tube, and washed once with PBS (1200 rpm, 5 min). The supernatant was discarded. Cell pellet was resuspended in Miltenyi buffer. Anti-CD19^+ microbeads were added to the suspension (10^7 cells in 80 μl of buffer, 20 μl antibody beads for 10^7 cells) and incubated for 15 min at 4° C. Cell pellet was washed once and resuspended in 1 ml Miltenyi buffer. The cell suspension was added to the magnetic column, washed with 10 ml Miltenyi buffer in the column. CD19^+ cells are released by 1 ml Miltenyi Buffer without magnetic field. CD19^+ cells were washed twice with RPMI complete medium. B cells (2×10^5) were plated in 96 well plate.
B cells were pretreated with 1,3-dioxo-(2,6-dioxopiperidin-3-yl)-4-aminoisoindoline or 1-oxo-(2,6-dioxopiperidin-3-yl)-4-aminoisoindoline at the concentrations of 60 μM, 6 μM, 0.6 μM, 0.06 μM, 0.006 μM, and 0.0006 μM for 30 min, then were added 2 μg/ml of anti-IgM, 2 μg/ml of anti CD40, 40 ng/ml IL-4, 100 ng/ml of recombinant BAFF, and/or 0.5 μg/ml of LPS. B cells were typically treated with the immunomodulatory compound alone or in presence of one or more of above stimuli for 3 days. Stimulated B cells with or without the treatment with immunomodulatory compound were used for cell proliferation assay and cytokines analysis.
The crosslinking of B cell receptor antigen (“BCR”) is the primary signal for B cell activation in response to antigen, and is critical in initializing subsequent B cell activation, proliferation, and differentiation. To assess B cell activation, B cells were treated with 1,3-dioxo-(2,6-dioxopiperidin-3-yl)-4-aminoisoindoline or 1-oxo-(2,6-dioxopiperidin-3-yl)-4-aminoisoindoline in presence of stimuli for 3 days. 25 μl BrdU was added to 250 μl cell culture 24 hours before harvesting cells. B cells were dried at 60° C. after removal of labeling supernatant. 100 μl FixDenat solution was added to fix cells for 30 min at room temperature. FixDenat solution was removed by tapping plate, then 100 μl anti-BrdU-POD was added each well for 90 min, at room temperature, and the plate was washed three 3 times. 100 μl of substrate was added to plate for 10 min, then 100 μl stop solution was added. Absorbance was measured by using an ELISA microplate reader (Molecular Devices) at OD 450 nm. […]

The subject of the next experiment is CD69. In words: FACS analysis of CD69 expression in CD19+ B cells. The protocol: as §1
B cells were treated with 1,3-dioxo-(2,6-dioxopiperidin-3-yl)-4-aminoisoindoline (FIG. 3A) or 1-oxo-(2,6-dioxopiperidin-3-yl)-4-aminoisoindoline (FIG. 3B) in presence of anti IgM, anti CD40 and IL-4 for 3 days. The suspension of B cells was washed by PBS once, and incubated with FITC conjugated anti human CD69 for 30 min in the dark. B cells were subject to FACS analysis using flow cytometer (EPICS XL-MCL, Beckman Coulter Company).
To assess whether the effects of immunomodulatory compounds on IL-4 signaling impact on IL-4 mediated B cell activation, FACS array of immediate early expression marker CD69 expression at triplicates and six doses was examined using 1,3-dioxo-(2,6dioxopiperidin-3-yl)-4-aminoisoindoline or 1-oxo-(2,6-dioxopiperidin-3-yl)-4-aminoisoindoline. […] Thus, it is clear that immunomodulatory compounds have no impact on this process.

The next experiment deals with CD80. In words: FACS analysis of CD80 expression on B cells. Particulars: normal B cells, 1 μM. As for the experimental part: as §1
B cells were treated with 1 μM 1,3-dioxo-(2,6-dioxopiperidin-3-yl)-4-aminoisoindoline in presence of LPS; CD40 ligand and IL-4; or BAFF for 3 days. The suspension of B cells was washed by PBS once, and incubated with FITC conjugated anti human CD40, PE conjugated anti human CD80, or PerCP-Cy5.5 conjugated anti human HLA-DR for 30 min in the dark. […]

A further experiment has as its system IL-6. Kind of experiment: Measurement of cytokine IL-6 by Luminex in B cells. As for the experimental part: as §1
B cells were treated with 1,3-dioxo-(2,6-dioxopiperidin-3-yl)-4-aminoisoindoline at 60 μM, 6 μM, 0.6 μM, 0.06 μM, 0.006 μM and 0.0006 μM in presence of anti IgM, anti CD40 and IL-4 for 3 days. Supernatant (25 μl) was collected and incubated with 25 μl anti IL-6 beads for about 1 hour. […] The plate was read on Bio-Plex instrument (Bio-Rad).

The next experiment relates to HLA-DR. Kind of experiment: FACS analysis of HLA-DR expression on B cells. As for the experimental part: as §1
B cells were treated with 1 μM 1,3-dioxo-(2,6-dioxopiperidin-3-yl)-4-aminoisoindoline in presence of LPS; CD40 ligand and IL-4; or BAFF for 3 days. The suspension of B cells was washed by PBS once, and incubated with FITC conjugated anti human CD40, PE conjugated anti human CD80, or PerCP-Cy5.5 conjugated anti human HLA-DR for 30 min in the dark. B cells were subject to FACS analysis using BD FACSAria (BD biosciences).
In addition to the suppression of IL-4 induced proliferation, CD40+IL-4 induced HLA-DR expression was also examined. B cells were treated by 1,3-dioxo-(2,6-dioxopiperidin-3-yl)-4-aminoisoindoline with CD40L+IL-4 for 72 hours, and the cell surface expression markers CD40 and HLA-DR were measured by FACS. […] In contrast, for the B cells that were treated with BAFF, 1,3-dioxo-(2,6-dioxopiperidin-3-yl)-4-aminoisoindoline increased CD40 expression by 60% and HLA-DR expression by 86% (FIG. 11F). The data are consistent with the previous observation that immunomodulatory compounds have no effect on CD40+IL-4 signaling.

The mark [1] stands for this setting: B cells treated with BAFF (FIG. 11F).

As to `Nc1cccc2c1C(=O)N(C1CCC(=O)NC1=O)C2=O` (stereo not shown) [1,3-dioxo-(2,6-dioxopiperidin-3-yl)-4-aminoisoindoline], the “increase of CD40 expression” value in the experiment with CD40 (setting [1]) is recorded as 60%. Further, the CD40 expression result in the experiment with CD40 (B cells treated with BAFF or LPS, 1 μM, 3 days (FIG. 2A)) is listed as “upregulated”. Further, in the experiment on B cells (combined with IgM (anti-IgM)), the B cell proliferation result is listed as “enhance”. Further, the “effect on B cell activation/proliferation” value in the experiment with B cells (compound alone) is reported as “minimal effect”. The CD69 expression entry was “dose-dependently enhanced” in the experiment with CD69 (CD19+ B cells treated with anti human IgM, anti human CD40 and IL-4, 3 days (FIGS. 3A, 3B)); “neither immunomodulatory compound inhibited” in the experiment on CD69 (IL-4 stimulated CD19+ B cells, triplicates, six doses (FIGS. 10A and B)). Also, the “number of B cells expressing CD80” value with CD80 (CD40 ligand and IL-4, 3 days (FIG. 1B)) is on record as “increased”. In addition, in the experiment on CD80 (in the presence of CD40 ligand and IL-4, 3 days (FIG. 1A)), the CD80 expression entry is recorded as “increased”. Further, the IL-6 expression entry is recorded as “did not enhance” in the experiment on IL-6 (compound alone (FIG. 5A)); “enhanced” in the experiment on IL-6 (in combination with anti IgM, anti CD40 and IL-4, 3 days, 0.0006-60 μM (FIG. 5B)). Moreover, the “increase of HLA-DR expression” value in the experiment with HLA-DR (setting [1]) is 86%. Further, in the experiment with HLA-DR (B cells treated with BAFF or LPS, 1 μM, 3 days (FIG. 2B)), the HLA-DR expression entry is “upregulated”. The “CD40+IL-4 induced HLA-DR expression” value in the experiment with HLA-DR (B cells with CD40L+IL-4 for 72 hours (FIG. 11E)) is “no enhancement”.

(Values after US8394832B2, “Methods and compositions using immunomodulatory compounds for the treatment of immunodeficiency disorders” (Celgene Corporation, priority 2004, dated 2013).)
